In PMC5944968, “A multi-chamber microfluidic intestinal barrier model using Caco-2 cells for drug transport studies” (PLoS ONE, 2018):
Like-named read-outs stand apart in the source and are kept apart here. Each block holds one compound with its values, some of them ahead of it.

Assays:
Caco-2 monolayers [1] = assay: TEER of Caco-2 monolayers in Transwell inserts after permeation enhancer; format: cell-based, Human; conditions: recovering to normal levels within 24h in fresh medium
Procedure: TEER was measured in Transwell inserts with Millicell ERS-2 chopstick Silver/SilverChloride (Ag/AgCl) electrodes (Millipore, USA), and calculated via Eq 1 (see below). […] Sigma, Denmark), insulin (Novo Nordisk, Denmark) and tetradecyl-β-D-Maltoside (TDM; Sigma, Denmark) were all prepared using buffer^+ as the diluent. Buffer^+ was prepared by mixing Hank’s Buffered Saline solution (HBSS; Gibco, Denmark), 0.1% (wt/vol) OVA (ovalbumin; from chicken egg white, Sigma, Denmark) and 10 mM HEPES (HEPES; Sigma, Denmark) at pH 7.4. […] The gentle shaking was to ensure there was little unstirred diffusion layers of fluid in the basolateral region. […] PerkinElmer), after mixing with scintillation fluid (Microscint-40; PerkinElmer), along with a peptide and FD4 content. After the experiments, the cells were washed twice with buffer^+ and replenished with medium for 24 hour recovery. In the microfluidic system, similar to the Transwell studies, before the start of experiment, the DMEM was replaced with buffer^+. Buffer^+ was flowed into the system for 1 hr. Subsequently, the buffer was changed to the test solutions in the top fluidic layer. Flow rate was set at 3 μl/min (in both the upper and lower layers). In the collection reservoirs of the basolateral chambers, 200 μl of buffer was added to each of the collection reservoirs. […]

Caco-2 monolayers [2] = assay: TEER of Caco-2 monolayers in microfluidic device after permeation enhancer; format: cell-based, Human
Procedure: TEER measurements (Ω) of the Caco-2 cells cultured in the microfluidic device were obtained by coupling the connecting wires of the electrodes to a multimeter (Keithley, USA) using alligator clips. Each chamber contained two sets of top electrodes and two sets of bottom electrodes. Each time the TEER values were recorded, only one top electrode and one bottom electrode are connected to the multimeter. Four different configurations of TEER values were recorded, averaged to calculate the final TEER values measured across the microchamber.
The final TEER values (Ω cm^2) were determined by subtracting the baseline measurement in the absence of cells (Rbaseline) from the read out (R1) and multiplying with the area of cell culture (Ao, 1.12 cm^2 for Transwell and 0.1 cm^2 for the microfluidic device) as shown in Eq 1.
(§1) Buffer^+ was prepared by mixing Hank’s Buffered Saline solution (HBSS; Gibco, Denmark), 0.1% (wt/vol) OVA (ovalbumin; from chicken egg white, Sigma, Denmark) and 10 mM HEPES (HEPES; Sigma, Denmark) at pH 7.4.
To validate the accuracy and dynamic span of TEER values acquired from the electrodes on the microfluidic chip, a permeation enhancer, tetradecyl-β-D-maltoside (TDM), was introduced to the Caco-2 monolayers for two hours. The concentration of TDM used in the earlier reported studies is expected to cause a transient disruption of the Caco-2 monolayer integrity, while causing minimal cell death, which is reversible after 24 hours in fresh cell culture medium.

Caco-2 monolayers [3] = tested on: Caco-2 monolayers
Procedure: as §1
(§2) The Caco-2 translocation of peptide, [^3H]mannitol or Rh 123 over Caco-2 layers is expressed as the apparent permeability (Papp), given by: Papp=dQ/dt1/AC0 (2) Where dQ/dt is the steady-state flux across the cell layer (pmol/s), A is the surface area (1.12 cm^2 for Transwell, 0.1 cm^2 for microfluidic), and C0 is the initial sample concentration.

P-gp = assay: Rh 123 bidirectional permeability / P-gp efflux across Caco-2 monolayers in microfluidic device; format: in vitro ADME; conditions: human, day 10 of cell culture; for Papp at 10 μM: Caco-2, 10 μM Rh 123, microfluidic device, n = 3
Procedure: Before carrying out the Rh 123 studies, buffer^+ was flowed to both the upper and lower channels for 1 hr. Following that Rh 123 (Sigma-Aldrich, Denmark) prepared in buffer^+ to a concentration of 10 μM was flowed to the basolateral side. 200μl of buffer^+ was added to each waste reservoirs. At each 15min interval, 150 μl was removed from the respective waste reservoirs with replacement of 150μl of buffer^+. Studies were carried out in triplicates.
as §2
For the P-gp studies, the collected samples were analyzed for Rh 123 content using a fluorescence plate reader with excitation/emission of 485/546nm, based on standard curves prepared from test solutions. The efflux ratio of P-gp was determined by: effluxratio=Papp(Basal→Apical)/Papp(Apical→Basal) (4)

Structure (SMILES): CCCCCCCCCCCCCCO[C@@H]1O[C@H](CO)[C@@H](O[C@H]2O[C@H](CO)[C@@H](O)[C@H](O)[C@H]2O)[C@H](O)[C@H]1O [TDM, tetradecyl-β-D-maltoside]
TEER change following TDM addition (Caco-2 monolayers [1]): reversibly decreased
TEER in the presence of TDM, % of initial values (Caco-2 monolayers [2]; TDM for two hours): 21%
TEER recovery, % of initial values (Caco-2 monolayers [2]; after 24 hours of continuous perfusion with cell culture medium): 90%
TEER change following TDM addition (Caco-2 monolayers [2]; recovering to normal levels within 24h in fresh medium): reversibly decreased

Papp in microfluidic chip compared to static Transwell cultures (Caco-2 monolayers [3]): slightly higher (not significant)
Structure (SMILES): OC[C@@H](O)[C@@H](O)[C@H](O)[C@H](O)CO [mannitol]

Papp at 10 μM (P-gp; read-out: Papp(apical → basal)): ~1.03 ×10⁻⁶ cm/s
Papp at 10 μM (P-gp; read-out: Papp(basal → apical)): ~11.2 ×10⁻⁶ cm/s
efflux ratio at 10 μM (P-gp; Caco-2, microfluidic device, read-out: efflux ratio Papp(Basal→Apical)/Papp(Apical→Basal)): ~10.8
Structure (SMILES): COC(=O)c1ccccc1-c1c2ccc(=N)cc-2oc2cc(N)ccc12 [Rh 123, Rhodamine 123]
